In this assay the target is T1, MshE (VC0405) (Vibrio cholerae, UniProt Q9KUV7).
T1 construct: gene VC_0405
In words: biochemical.

Molecules are shown by their SMILES.

T1 sequence (Q9KUV7 1-575): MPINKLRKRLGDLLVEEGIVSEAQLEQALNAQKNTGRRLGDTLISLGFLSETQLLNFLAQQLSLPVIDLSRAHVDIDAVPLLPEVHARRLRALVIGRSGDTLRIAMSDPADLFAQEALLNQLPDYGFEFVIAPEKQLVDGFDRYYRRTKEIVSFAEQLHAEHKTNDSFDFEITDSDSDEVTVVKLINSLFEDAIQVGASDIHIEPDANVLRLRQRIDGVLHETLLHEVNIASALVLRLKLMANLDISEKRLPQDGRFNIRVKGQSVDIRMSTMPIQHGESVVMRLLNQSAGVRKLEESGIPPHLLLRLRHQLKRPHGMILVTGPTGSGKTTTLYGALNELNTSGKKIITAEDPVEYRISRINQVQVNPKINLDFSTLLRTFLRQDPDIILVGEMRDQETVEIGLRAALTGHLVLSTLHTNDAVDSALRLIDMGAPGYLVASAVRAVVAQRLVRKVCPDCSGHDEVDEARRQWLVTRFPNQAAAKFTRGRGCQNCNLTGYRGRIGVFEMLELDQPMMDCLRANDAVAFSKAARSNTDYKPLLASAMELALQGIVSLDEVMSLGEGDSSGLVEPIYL

By Kd is commonly meant the equilibrium constant for the complex coming apart. A low value points to tighter binding. Molecule `Nc1nc2c(ncn2[C@@H]2O[C@@H]3CO[P@](=O)(O)O[C@H]4[C@@H](O)[C@H](n5cnc6c(=O)[nH]c(N)nc65)O[C@@H]4CO[P@](=O)(O)O[C@H]3[C@H]2O)c(=O)[nH]1` [c-di-GMP] displayed a dissociation constant Kd of 1.9 ± 0.4 µM.
